Measured values taken from US7226761B2, “Manufacture of five-carbon sugars and sugar alcohols” (Danisco Sweeteners Oy, priority 1992, dated 2007).

T1: DOG1 (Saccharomyces cerevisiae, UniProt P38774)
T1 construct: expressed in transfected cells; host or cells: S. cerevisiae H1104 (W303-1B) transformed with plasmid B1020 (YEplac195, ADH1 promoter-DOG1-ADH1 terminator) = strain H1514; crude cell extract
T1 sequence (P38774 1-246): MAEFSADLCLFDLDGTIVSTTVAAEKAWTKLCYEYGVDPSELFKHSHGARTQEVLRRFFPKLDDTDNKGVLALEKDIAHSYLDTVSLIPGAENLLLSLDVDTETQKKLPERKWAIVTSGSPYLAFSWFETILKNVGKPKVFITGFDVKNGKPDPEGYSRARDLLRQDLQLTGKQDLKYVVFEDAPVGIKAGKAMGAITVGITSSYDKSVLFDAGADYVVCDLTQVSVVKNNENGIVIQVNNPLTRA

B1: Saccharomyces cerevisiae XDH: enzyme having xylitol dehydrogenase activity encoded by S. cerevisiae ORF YLR070c, expressed on B1163 (protein, UniProt Q07993 1-356, looked up)
D-xylulose reductase: MTDLTTQEAIVLERPGKITLTNVSIPKISDPNEVIIQIKATGICGSDIHYYTHGRIANYVVESPMVLGHESSGIVALIGENVKTLKVGDRVALEPGIPDRFSPEMKEGRYNLDPNLKFAATPPFDGTLTKYYKTMKDFVYKLPDDVSFEEGALIEPLSVAIHANKLAKIKFGARCVVFGAGPIGLLAGKVASVFGAADVVFVDLLENKLETARQFGATHIVNSGDLPHGVTVDSVIKKAIGKKGADVVFECSGAEPCVRAGIEVCKAGGTIVQVGMGQEEIQFPISIIPTKELTFQGCFRYCQGDYSDSIELVSSRKLSLKPFITHRYSFKDAVEAFEETSHHPLNNIKTIIEGPE
B2: arabitol-phosphate dehydrogenase: arabitol-phosphate dehydrogenase purified from Enterococcus avium ATCC 35655, SEQ ID NO:69 (protein)
chain: MSKTMKGVSKQAPGYDQMAFIDLSVPEATDDKVLIKVAYTGICGSDIHTFKGEYKNPTTPVVLGHEFSGQVVEVGANVTKVKVGDRVTSETTFYVCGECDYCKEKQYNLCPHRKGIGTQQNGSMANYVLAREESIHLLPDHLSYEGAAMSEPLACCVHAMYQKSHLELKDTIIIMGPGPIGLYLLQIAKEIGAFVIMTGITKDAHRLALAKKLGADVIVDTMKEDLAKVVNEITDGYGVDKVYDASGAVPAVNASLPLIRKQGQFIQVGLFANKMVDLDTESIIQREIEYIGSRSQNPYDWPIAIHLLAKGAINIDEMITKKYPLTEWREAFDKVMEGNEIKVMIESNPEEF
modifications: Bacillus halodurans
B3: Pichia stipitis XDH: xylitol dehydrogenase encoded by the XYL2 gene from Pichia stipitis, expressed in yeast on pAOS67 (protein, UniProt P22144 1-363, looked up)
D-xylulose reductase: MTANPSLVLNKIDDISFETYDAPEISEPTDVLVQVKKTGICGSDIHFYAHGRIGNFVLTKPMVLGHESAGTVVQVGKGVTSLKVGDNVAIEPGIPSRFSDEYKSGHYNLCPHMAFAATPNSKEGEPNPPGTLCKYFKSPEDFLVKLPDHVSLELGALVEPLSVGVHASKLGSVAFGDYVAVFGAGPVGLLAAAVAKTFGAKGVIVVDIFDNKLKMAKDIGAATHTFNSKTGGSEELIKAFGGNVPNVVLECTGAEPCIKLGVDAIAPGGRFVQVGNAAGPVSFPITVFAMKELTLFGSFRYGFNDYKTAVGIFDTNYQNGRENAPIDFEQLITHRYKFKDAIEAYDLVRAGKGAVKCLIDGPE

Experiments:
[1] = biological target: T1, DOG1; assay: Specificity of DOG1 towards sugar phosphates in yeast cell extracts (phosphate release); type: biochemical, S. cerevisiae; conditions: 20 mM substrate; cell extract of H1514; relative to 2-deoxyglucose-6-P as 100%
Description: The specificity of DOG1 towards xylulose-5-P, ribulose-5-P, ribose-5-P and 2-deoxyglucose-6-P was determined using 20 mM substrate concentrations. Yeast cell extracts were prepared as described in example 15, except that 50 mM imidazole-HCl, 10 mM MgCl2 buffer, pH 6.0 was used. 10 μl of extract and 210 μl of substrate (20 mM) in the same buffer was incubated for 30 min, 30° C. The reaction was stopped with final 2% of TCA and the phosphate released was measured using ammonium molybdate (15 mM), zinc acetate (100 mM), pH 5.0 as the reagent. The formation of molybdenum blue was measured at 350 nm, and quantified by phosphate standards (Sanz, P. et al., Yeast 10:1195–1202 (1994); Bencini, D. A. et al., Anal. Biochem. 132:254–258 (1983)).

[2] = biological target: T1, DOG1; conditions: 40 mM substrate; relative to 2-deoxyglucose-6-P as 100%; cited from earlier work
[3] = XDH activity assay in yeast cell extracts, reaction started with D-xylulose; type: biochemical; conditions: 1 mM D-xylulose; 0.2 mM NADH; pH 7.0; cell extract
Text: (§1) The xylitol dehydrogenases of P. stipitis, Trichoderma reesei and S. cerevisiae were investigated regarding their specificities towards their sugar substrates. Each of the XDH encoding genes was expressed on multi-copy vectors pAOS67, B1070 and B1163, respectively (see Example 12). Yeast strain H1104 (pAOS67, B1163) and H1052 (B1070) harboring each of the multi-copy vectors, H1160, H1886 and H1748, respectively, were cultivated on SCD medium lacking the appropriate selection marker (histidine, leucine, uracil, respectively). Cells were collected by centrifugation and washed twice with 100 mM sodium phosphate buffer pH 7.0. Cells were resuspended at a concentration of 500 mg/ml wet weight, corresponding approximately to 75 mg/ml dry weight, in the same buffer. 1 ml of this suspension was vortexed with 1 g glass beads (0,5 mm Ø) for 15 min. at 4° C., centrifuged in an Eppendorf centrifuge (13,000 rpm) and the supernatant was assayed. XDH activity was assayed in a medium containing 50 mM Pipes KOH pH 7.0, 0.2 mM NADH. The reaction was started by addition of D-xylulose or D-ribulose at a final concentration of 1 mM. The activity was measured by following the adsorption of NADH at 340 nm.

[4] = XDH activity assay in yeast cell extracts, reaction started with D-ribulose; type: biochemical; conditions: 1 mM D-ribulose; 0.2 mM NADH; pH 7.0; cell extract
Text: as §1

[5] = Xylulose 5-phosphate reductase (XPDH/APDH) activity assay with NADH; type: biochemical; conditions: 5 mM xylulose 5-phosphate as the substrate
Description: The strain BD 170 [pGTK24(MXD2)] as well as untransformed strain BD 170 was grown overnight on either LB or LB, containing 10% glucose, cell extracts were prepared and the XDH activity measured. The assay conditions for measuring XDH activity were: 30° C., 50 mM Tris-HCI, pH 7.0, 0.2 mM NADH and 10 mM D-xylulose. Changes of absorption at 340 nm were recorded; one unit of activity was defined as the amount of enzyme that catalyzed the reduction of one […] of substrate per minute under the conditions of assay (assuming the differential absorption coefficient NADH/NAD^+ to be equal to […]). The following levels of XDH activity were measured in the strain BD170 [pGTK24(MXD2)] grown on the two media: LB—0.5 U/mgproteins, LB-glucose 0.05–0.15 U/mgprotein. Thus, glucose appeared to repress the activity of the aldolase promoter 3–10 fold. No XDH activity could be detected in the strain BD170 grown on either of the two media.
B. subtilis strain BD170 was transformed with pGTK74(LRXPDH) and pGTK74(BHDH2). The transformants were grown overnight in LB containing 25 mg/liter kanamycin, cell extract were prepared by sonication and the activity of XPDH activity was measured. The conditions for measuring the XPDH activity were similar to those used for measuring the xylitol dehydrogenase activity except that xylulose 5-phosphate was used as the substrate (usually at 5 mM concentration) instead of xylulose. The activities were approximately 0.3 U/mg protein for the XPDH from L. rhamnosus and about 0.5 U/mg protein for B. halodurans enzyme.
Enterococcus avium ATCC 35655 was cultivated at 30° C. in 5 liters of a medium containing: peptone—10 g/l, yeast extract—5 g/l, beef extract 10 g/l, K2HPO4 2 g/l, NaCl—5 g/l, MgSO4—0.02 g/l, MnCl2—0.05 g/l, ammonium citrate 2 g/l, Tween 20—1.1 ml/l, xylitol—20g/l, pH 6.5. […]

[6] = Stereospecificity of D-xylulose 5-phosphate reduction, products dephosphorylated and analyzed by HPLC; type: biochemical; conditions: 10 mM xylulose 5-phosphate, 10 mM NADH, pH 7.0, 37° C.
Description: The stereospecificity of xylulose-phosphate reduction by the B. halodurans XPDH was verified by the following procedure. The reaction between D-xylulose 5-phosphate and NADH was conducted at 37° C. for several hours under the following conditions: 100 mM Tris-HC buffer, pH 7.0, 10 mM xylulose 5-phosphate, 10 mM NADH, […] the enzyme lysate. The reaction products were dephosphorylated with alkaline phosphatase and analyzed by HPLC. […] It should be noted that among the highest-scoring four homologues of the L. rhamnosus XPDH, the enzyme from B. holodurans is the least homologous. This can be interpreted as an indication that the other three homologues (SEQ ID NO:51, 52 and 53) are most probably also xylitol-phosphate dehydrogenases.
The stereospecificity of D-xylulose 5-phosphate reduction by the E. avium arabitol-phosphate dehydrogenase was verified by the following procedure. The reaction between D-xylulose 5-phosphate and NADH was conducted at 37° C. for several hours under the following conditions: 100 mM Tris-HCl buffer, pH 7.0, 10 mM xylulose 5-phosphate, 10 mM NADH, 1U of the enzyme. The reaction products were dephosphorylated with alkaline phosphatase and analyzed by HPLC. […] There are no other arabitol-phosphate dehydrogenases described in the art.
Both arabitol-phosphate dehydrogenase genes were expressed using the same tools and methods as those used for the expression of xylitol-phosphate dehydrogenases (Example 26). Briefly, the coding regions of the two arabitol-phosphate dehydrogenase genes were amplified using the chromosomal DNA of the microorganism from which the enzyme was isolated and the appropriate PCR primers. In the case of E. avium the primers were oAPDH 51 […] SEQ ID NO: 71) and the anti-sense primer oAPDH 31 […]) SEQ ID NO: 72. For B. halodurans, the sense primer was oBHDH 5 ([…], SEQ ID NO: 73) and the anti-sense primer was oBHDH 3 ([…], SEQ ID NO: 74). […] The stereospecificity of D-xylulose 5-phosphate reduction by the previously unknown enzyme from B. halodurans was determined as described in Example 30.

Molecule | Relative activity (20 mM) [1] [%] | Activity reported in the literature (40 mM) [2] [%] | specific activity towards D-xylulose, normalized to D-xylulose activity being 100% [3] [%] | specific activity towards D-ribulose, normalized to D-xylulose activity being 100% [4] [%] | also measured
O=CC[C@@H](O)[C@H](O)[C@H](O)COP(=O)(O)O [2-deoxyglucose-6-P, 2-deoxyglucose-6-phosphate] | 100 | 100 | – | – | –
O=C[C@H](O)[C@H](O)[C@H](O)COP(=O)(O)O [ribose-5-P, ribose-5-phosphate] | 52 | 42 | – | – | –
O=C(CO)[C@H](O)[C@H](O)COP(=O)(O)O [ribulose-5-P, ribulose-5-phosphate] | 6 | 7 | – | – | –
B1 | – | – | 100 | 10 | –
B2 | – | – | – | – | specific activity of purified enzyme [5]: about 12 U/mgprotein; products found in the reaction mixture / stereospecificity [6]: Only arabitol and xylulose (corresponding to the unreacted xylulose 5-phosphate) were found
B3 | – | – | 100 | 25 | –
